# From patent US20190185479A1, “BICYCLIC NITROGENATED HETEROCYCLIC COMPOUND” (MITSUBISHI TANABE PHARMA CORPORATION, priority 2016, published 2019)
# Where a name gives a salt, the structure may show the parent alone.
# Biological target: T1, Human PDE7B (hPDE7B) (Homo sapiens, UniProt Q9NP56)
# T1 construct: made in house; host or cells: COS-7 cells
# Experiment: Measurement of PDE7 inhibitory activity (Experimental Example 1; residual cAMP, LANCE Ultra cAMP TR-FRET)
# Format: biochemical
# Details: cAMP 3 nmol/L, room temperature 60 minutes
# Experimental: Human PDE7B (hPDE7B) was isolated from COS-7 cells transfected with plasmids encoding hPDE7B according to the method described in a reference, Biochemical and Biophysical Research Communication, 271, p. 575-583 (2000). The resulting enzyme solution was used in the PDE assay.
# PDE7 inhibitory assay was carried out by reacting the mixture of a compound, hPDE7B, and cAMP, and measuring the residual cAMP by a detection method using LANCE (registered trademark) Ultra cAMP Detection Kit (ParkinElmer). The compound was dissolved in DMSO, and diluted so that the concentration would become 50 times of the final concentration. The hPDE7B and cAMP were diluted with an assay buffer (50 mmol/L Tris-HCl, 1 mmol/L MgCl2, 0.1% BSA, 0.5 mmol/L DTT, pH7.5) so that the hPDE7B would have an appropriate enzyme activity and the concentration of cAMP would become 6 nmol/L. To a 96 well plate were added the compound (2 μL) (DMSO final concentration: 2%), hPDE7B (48 μL), and cAMP (50 μL) (concentration at the reaction: 3 nmol/L), and the resulting mixture was reacted at room temperature for 60 minutes. The reaction solution (20 μL) was subjected to a TR-FRET method according to the protocol specified by the kit to measure the concentration of the residual cAMP. In the assay, to a tracer solution specified by the kit was added 0.5 mmol/L of 3-isobutyl-1-methylxanthine (IBMX, nonselective PDE inhibitor) in order to stop the PDE enzyme reaction after the completion of reaction until the measurement.
# The reaction without a compound was defined as “0% inhibition”, the reaction without hPDE7B was defined as “100% inhibition”, and the inhibition rate of the compound was calculated by the following equation.
# Inhibition rate of compound (%)={(Residual cAMP concentration at the addition of compound−Residual cAMP concentration in 0% inhibition)/(Residual cAMP concentration in 100% inhibition−Residual cAMP concentration in 0% inhibition)}×100
# T1 sequence (Q9NP56 whole entry): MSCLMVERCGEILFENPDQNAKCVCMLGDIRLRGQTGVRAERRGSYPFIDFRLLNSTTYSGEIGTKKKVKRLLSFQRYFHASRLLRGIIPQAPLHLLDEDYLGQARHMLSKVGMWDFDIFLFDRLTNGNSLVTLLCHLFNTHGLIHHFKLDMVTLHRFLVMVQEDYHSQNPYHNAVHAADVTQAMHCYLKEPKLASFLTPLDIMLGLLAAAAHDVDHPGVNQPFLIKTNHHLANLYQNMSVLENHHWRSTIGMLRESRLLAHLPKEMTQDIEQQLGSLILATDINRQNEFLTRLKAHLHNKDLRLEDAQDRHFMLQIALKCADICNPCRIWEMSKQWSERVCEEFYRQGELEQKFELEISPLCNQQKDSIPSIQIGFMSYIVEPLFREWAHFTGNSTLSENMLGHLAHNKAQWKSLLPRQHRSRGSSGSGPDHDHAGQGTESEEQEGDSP
row,SMILES,IC50
1,"CC1(C)CCCC(c2nnc3c(N)ncnn23)C1 (racemic) [Example 73, 3-(3,3-dimethylcyclohexyl) [1,2,4]triazolo[3,4-f][1,2,4]triazin-8-amine]",1 nM
2,COC1CCCC(n2nnc3c(N)ncnc32)C1 (stereo not drawn) [Example 123],420 nM
3,Nc1nccn2c(N3C[C@H]4C[C@H]4C3)nnc12 [Example 31],480 nM
4,CC1(C)CCCN(c2nnc3c(N)ncc(-c4ccccc4)n23)C1 [Example 81],160 nM
5,"CC1CC(c2nnc3c(N)nccn23)CC(F)(F)C1 (racemic) [Example 155, 3-(trans-3,3-difluoro-5-methylcyclohexyl[1,2,4]triazolo[4,3-a]pyrazin-8-amine]",90 nM
6,Nc1nccn2c(N3CCCC(F)C3)nnc12 (stereo not drawn) [Example 27],320 nM
7,C[C@]1(O)CC[C@@H](n2nnc3c(N)ncnc32)CC1 [Example 9],890 nM
8,"Nc1nccn2c(C3CCCC4(CC4)C3)nnc12 (racemic) [Example 145, 3-(spiro[2,5]oct-5-yl) [1,2,4]triazolo[4,3-a]pyrazin-8-amine]",30 nM
9,Cc1cnc(C2CCCC(n3nnc4c(N)ncnc43)C2)s1 (stereo not drawn) [Example 127],730 nM
10,"CC1CCCCC1n1nnc2c(N)ncnc21 (single isomer, unassigned) [Example 190, 3-(cis-2-methylcyclohexyl)-3H-[1,2,3]triazolo[4,5-d]pyrimidin-7-amine]",220 nM
11,COC1CCCCC1n1nnc2c(N)ncnc21 (stereo not drawn) [Example 116],380 nM
12,"C[C@H]1CCC[C@H](c2nnc3c(N)nccn23)C1 (racemic) [Example 143, 3-(trans-3-methylcyclohexyl) [1,2,4]triazolo[4,3-a]pyrazin-8-amine]",50 nM
13,Nc1ncnc2c1nnn2C1CCC1 [Example 35],200 nM
14,CC1CC(n2nnc3c(N)ncnc32)CC(C)(C)C1 (stereo not drawn) [Example 108],230 nM
15,"CC1CCCCC1c1nnc2c(N)ncnn12 (single isomer, unassigned) [Example 69, 3-(cis-2-methylcyclohexyl) [1,2,4]triazolo[3,4-f][1,2,4]triazin-8-amine]",10 nM
16,Nc1nccn2c(C3CCCCO3)nnc12 (stereo not drawn) [Example 168],440 nM
17,"CC(C)[C@H]1CC[C@H](C)[C@H](n2nnc3c(N)ncnc32)C1 [Example 134, 3-[(1R,2S,5S)-2-methyl-5-(propan-2-yl)cyclohexyl]-3H-[1,2,3]triazolo[4,5-d]pyrimidin-7-amine]",330 nM
18,CC1(C)CCN(c2nnc3c(N)nccn23)CC1 [Example 51],110 nM
19,"CCC1CCCCN1c1nnc2c(N)nccn12 (single isomer, unassigned) [Example 223, 3-(2-ethylpiperidin-1-yl) [1,2,4]triazolo[4,3-a]pyrazin-8-amine]",190 nM
20,CC(C)(C)OC(=O)N1CCCC(n2nnc3c(N)ncnc32)C1 (stereo not drawn) [Example 11],400 nM
21,"CC1CCC(C)N(c2nnc3c(N)nccn23)C1 (single isomer, unassigned) [Example 233, 3-(2,5-dimethylpiperidin-1-yl) [1,2,4]triazolo[4,3-a]pyrazin-8-amine]",100 nM
22,"CC1CCC(C)(C)CN1c1nnc2c(N)nccn12 (single isomer, unassigned) [Example 237, 3-(2,5,5-trimethylpiperidin-1-yl) [1,2,4]triazolo[4,3-a]pyrazin-8-amine]",2.8 nM

row,SMILES,IC50
1,Nc1nc(C(F)(F)F)nc2c1nnn2C1CCCCC1 [Example 6],340 nM
2,"Nc1ncnc2c1nnn2C1CCCCC1 [Example 85, 3-cyclohexyl-3H-[1,2,3]triazolo[4,5-d]pyrimidin-7-amine hydrochloride]",40 nM
3,CCC1CCCC(n2nnc3c(N)ncnc32)C1 (stereo not drawn) [Example 117],80 nM
4,"CC1(C)CC(c2nnc3c(N)nccn23)CC(F)(F)C1 (racemic) [Example 156, 3-(3,3-difluoro-5,5-dimethylcyclohexyl) [1,2,4]triazolo[4,3-a]pyrazin-8-amine]",30 nM
5,"CC1(C)CCCC(c2nnc3c(N)nccn23)C1 (single isomer, unassigned) [Example 206, 3-(3,3-dimethylcyclohexyl) [1,2,4]triazolo[4,3-a]pyrazin-8-amine]",> 1000 nM
6,"CC1CCCN(c2nnc3c(N)nccn23)C1C (single isomer, unassigned) [Example 56, 3-(2,3-dimethylpiperidin-1-yl) [1,2,4]triazolo[4,3-a]pyrazin-8-amine]",190 nM
7,"CC1CCC(C)N(c2nnc3c(N)ncc(C#N)n23)C1 (single isomer, unassigned) [Example 235, 8-amino-3-(2,5-dimethylpiperidin-1-yl) [1,2,4]triazolo[4,3-a]pyrazine-5-carbonitrile]",16 nM
8,"Nc1nccn2c(C3CCC4CC4C3)nnc12 (stereo not drawn) [Example 158, 3-(bicyclo[4.1.0]hept-3-yl) [1,2,4]triazolo[4,3-a]pyrazin-8-amine]",70 nM
9,"CC1(C)CCCCN1c1nnc2c(N)nccn12 [Example 36, 3-(2,2-dimethylpiperidin-1-yl)-[1,2,4]triazolo[4,3-a]pyrazin-8-amine]",380 nM
10,Cc1ccc(F)c(-n2nnc3c(N)ncnc32)c1 [Example 129],750 nM
11,C[C@@H]1C[C@H](C)C[C@@H](n2nnc3c(N)ncnc32)C1 [Example 105],310 nM
12,Nc1nccn2c(N3C4CCC3CC4)nnc12 [Example 66],360 nM
13,"CN1CCCCC1c1nnc2c(N)nccn12 (racemic) [Example 249, 3-(1-methylpiperidin-2-yl)-[1,2,4]triazolo[4,3-a]pyrazin-8-amine]",740 nM
14,"Nc1nccn2c([C@@H]3CCCC(F)(F)C3)nnc12 [Example 213, 3-(3,3-difluorocyclohexyl) [1,2,4]triazolo[4,3-a]pyrazin-8-amine]",330 nM
15,"CC1CCCCC1n1nnc2c(N)ncnc21 (racemic) [Example 95, 3-(cis-2-methylcyclohexyl)-3H-[1,2,3]triazolo[4,5-d]pyrimidin-7-amine]",40 nM
16,"CC1CC(c2nnc3c(N)nccn23)C1 (stereo not drawn) [Example 133, 3-(3-methylcyclobutyl)-[1,2,4]triazolo[4,3-a]pyrazin-8-amine]",160 nM
17,"CC1CCCCC1n1nnc2c(N)ncnc21 (single isomer, unassigned) [Example 193, 3-(trans-2-methylcyclohexyl)-3H-[1,2,3]triazolo[4,5-d]pyrimidin-7-amine]",430 nM
18,CC(c1ccccc1)n1nnc2c(N)ncnc21 (stereo not drawn) [Example 15],570 nM
19,"Nc1ncnc2c1nnn2C1CCCCC1(F)F (racemic) [Example 113, 3-(2,2-difluorocyclohexyl)-3H-[1,2,3]triazolo[4,5-d]pyrimidin-7-amine]",30 nM
20,"Nc1nccn2c([C@@H]3[C@H]4C=CC[C@H]43)nnc12 (relative stereo) [Example 163, 3-[(1S*,5R*,6S*)-bicyclo[3.1.0]hex-2-en-6-yl][1,2,4]triazolo[4,3-a]pyrazin-8-amine]",220 nM
21,"Nc1ncnc2c1nnn2C1CCCCC1F (racemic) [Example 97, 3-(cis-2-fluorocyclohexyl)-3H-[1,2,3]triazolo[4,5-d]pyrimidin-7-amine]",50 nM
22,Nc1ncnc2c1nnn2-c1c(F)cccc1F [Example 14],560 nM

# Same assay, conditions: compound at 1 μmol/L
row,SMILES,inhibition at 1 µM
1,"CC1(C)CCCC(c2nnc3c(N)nccn23)C1 (single isomer, unassigned) [Example 206, 3-(3,3-dimethylcyclohexyl) [1,2,4]triazolo[4,3-a]pyrazin-8-amine]",44%
